In patent US8017162B2, “Anti-inflammatory agent” (Oryza Oil & Fat Chemical Co., Ltd., priority 2005, dated 2011):

What was measured:
RAW264.7 cells [1] = experiment: NO production inhibition test (LPS, Griess Method); type: cell-based, mouse
Protocol: A 200 microliter each of the continuously-cultivated RAW264.7 cells (10^6 cells/mL) should be seeded into 48-well plate. After 24 hours, replace the culture medium with a serum-free culture medium. Then, add the LPS (final concentration: 10 microgram/mL) and samples (Examples 1 & 2), and then cultivate for 24 hours. Collect the supernatant (100 microliter) and determine the amount of NO by the Griess Method.

RAW264.7 cells [2] = experiment: PGE2 produced by LPS stimulation in RAW264.7 cells; type: cell-based, mouse; conditions: 0.1 microgram/mL, single substance, P<0.01 vs LPS group
Protocol: Suspend mouse-derived macrophage-like cells RAW264.7 in the culture medium “Minimum Essential Medium (MEM)” containing a 0.1 mM nonessential amino acid mixture, 10% fetal calf serum (FCS), penicillin (100 units/mL), and streptomycin (100 microgram/mL) in concentration of 1×10^6 cells/mL. Then, the cells were seeded into 48-well plate (200 microliter/well).
In 48 to 72 hours after the cultivation, vacuum the culture medium. Then clean the culture medium thrice with the serum-free culture medium (which contains no FCS). Then, add the serum-free culture medium (170 microliter) to each well.
After that, add the LPS solution (10 microlitre) which was prepared to 200 microgram/mL in the serum-free culture medium, to each well (final concentration 10 microgram/mL). Then, add the serum-free culture medium (10 microliter) to the well of the control group. Add 20 microliter each of the red ginger extract sample solution which was prepared to be the concentrations of […] in the serum-free culture medium, and add indomethacin in concentration of 8.9 microgram/mL (equivalent to 25 microM) to three wells, each. (The final concentrations of the red ginger extract are to be 0.1, 0.3, 1, 3, and 10 microgram/mL, and the final concentration of indomethacin is to be 0.89microgram/mL which is equivalent to 2.5 microM). […]

NO production = conditions: concentration of 21.5 to 215 microgram/mL (FIG. 9); cited from earlier work

| Structure (SMILES) | NO in supernatant (RAW264.7 cells [1]; 1 μg/mL, LPS 10 microgram/mL, 24 hours, average ± SD) [µM] | NO in supernatant (RAW264.7 cells [1]; 3 μg/mL) [µM] | NO in supernatant (RAW264.7 cells [1]; 10 μg/mL) [µM] | Inhibition ratio (NO production) (RAW264.7 cells [1]; 30 μg/mL) | NO in supernatant (RAW264.7 cells [1]; 30 μg/mL) [µM] | Inhibition ratio (NO production) (RAW264.7 cells [1]; 100 μg/mL) | NO in supernatant (RAW264.7 cells [1]; 100 μg/mL) [µM] | Inhibition ratio of PGE2 production (RAW264.7 cells [2]) [%] | Inhibitory effect on NO production (NO production) |
| --- | --- | --- | --- | --- | --- | --- | --- | --- | --- |
| CCCCC[C@H](O)CC(=O)CCc1ccc(O)c(OC)c1 [Example 6-gingerol, 6-gingerol] | 3.50 ± 0.26 | 3.66 ± 0.33 | 3.27 ± 0.26 | (4.3) % | 3.11 ± 0.22 | (17.6) % | 2.81 ± 0.47 | 37.8 |  |
| Cl.N[C@H]1C(O)O[C@H](CO)[C@@H](O)[C@@H]1O (stereo partly drawn) [glucosamine hydrochloride] |  |  |  |  |  |  |  |  | has the inhibitory effect on NO production |
